Test results as given in US6448239B1, “Peroxynitrite decomposition catalysts and methods of use thereof” (Trustees of Princeton University, priority 1999, dated 2002).

Tests used:
plasmid pBR322 = experiment: Cleavage of plasmid DNA with manganese pyridyl porphyrins, agarose gel; conditions: 1 mM Mn porphyrin, 50 μg/mL plasmid, 10 mM or 25 mM oxone, 5 min
Source text: Three forms of plasmid DNA are expected when Mn porphyrins interact with and cleave DNA, and they can be easily separated on an agarose gel. Uncleaved, supercoiled plasmid (Form I) will show the greatest mobility. In the event of a nick in the DNA, the supercoils will relax, and the open circular form of the plasmnid (Form II) will appear. Further oxidation will cleave the second strand of DNA as well, and leads to a linear form (Form III.) The relative electrophoretic mobilities are as follows: I>III>II.
Two concentrations of oxidant were used: 10 mM and 25 mM. All experiments were performed in 40 mM tris buffer+100 mM NaCl. […] Before reaction, porphyrin was allowed to incubate with plasmid for 30 min.
A typical reaction was performed as follows: to a solution of 1 mM manganese porphyrin and 50 μg/mL plasmid in buffer was added enough oxone to make a final concentration of 10 mM or 25 mM. (Volume of the entire reaction was 20 μL.) The reaction mixture was vortexed, then allowed to react for 5 min. HEPES buffer (100 mM) was added to stop the reaction.
Each sample was electrophoresed on a 1% agarose slab horizontal gel at 90V for 1 h at 24° C. in 40 mM tris-acetate (TAE) and 1 mM ETDA buffer. The agarose gel contained ethidium bromide (1 μg/mL) so that the lanes could be visualized by UV-vis, and the finished gel was photographed under UV illumination. Lanes 1-4 were run at 10 mM oxone, and lanes 5-8 were run at 25 mM oxone. The control lanes, C1 and C2, contained 10 mM and 25 mM oxone, respectively, but no porphyrin. […] The lane assignments include the following: lane 1: Mn 4-T(CX)PyP, lane 2: Mn 2-T(CX)PyP; lane 3, Mn 2-T(PEG3)PyP; lane 4: Mn 4-TMPyP; lane C1: plasmid+10 mM oxone; lane C2: Plasmid+25 mM oxone

calf thymus DNA (CT-DNA) = experiment: Calf thymus-DNA titration (UV-visible spectrum); assay type: binding
Experimental: A 5 μM solution of 4-T(CX)PyP was prepared in 10 mM tris buffer+1 mM EDTA (pH=8.0). To 2 mL of this solution in a quartz cuvette, 1 μL aliquots of a 1.89 mM solution of calf thymus DNA (CT-DNA) in 10 mM tris+1 mM EDTA were added. The concentration of CT-DNA was determined by UV-visible spectrum. After each addition, the cuvette was vortexed to ensure good mixing, and the UV-visible spectrum was recorded. […] Several intermediate spectra were omitted for clarity.
The porphyrin 2-T(CX)PyP was titrated in an analogous way to 4-T(CX)PyP, as described above. […] Presumably, the ortho carboxamide groups provide sufficient steric bulk to prevent association of the positively-charged pyridyl groups with the negatively-charged sugar phosphate backbone. Even when CT-DNA was added in large excess to the solution of porphyrin, a redshift of only […] was observed.

In the case of “Mn(III) 2-tetrakis(triethylene glycol monomethyl ether)pyridyl porphyrin [Mn 2-T(PEG3)PyP]”, the “appearance of linear form of DNA (Form III)” value (plasmid pBR322) is reported as “does not appear at all”.
“4-Tetrakis(carboxamide)pyridyl Porphyrin [4-T(CX)PyP]” was tested, and the “redshift of Soret band (Δλmax)” value (calf thymus DNA (CT-DNA); 5 μM porphyrin, 10 mM tris + 1 mM EDTA pH=8.0) was 12 nm, the “binding constant to DNA” value (calf thymus DNA (CT-DNA); calculated from the titration) was 7.99×10^6 and the “association with DNA (in words)” value (calf thymus DNA (CT-DNA); from change in Soret band) was “both porphyrin intercalation into DNA and outside stacking of porphyrin along the DNA backbone”.
For “Mn(III) 4-tetrakis(carboxamide)pyridyl porphyrin [Mn 4-T(CX)PyP]”, the “degree of plasmid cleavage” value (plasmid pBR322) was “greatest degree of plasmid cleavage”.
With “Mn(III) 2-tetrakis(carboxamide)pyridyl porphyrin [Mn 2-T(CX)PyP]” the “appearance of linear form of DNA (Form III)” value (plasmid pBR322) was “does not appear at all”.
